ChEMBL document CHEMBL1201862, “PubChem BioAssay data set” (2004)
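Following 48 hours of exposure in 96-well plates, responses at five concentrations were used to interpolate endpoints linearly. Abbreviation: GI50, concentration required for 50% inhibition of growth.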 Calls of active or inactive are those of the source. No stated cut-off is given here; in the data, active = GI50 up to about 1.1 µM and inactive = higher.

Tests used:
Assay in all cases: growth of human tumour cells (NCI), 48 h
A549 = tested on: A549
CAKI-1 = tested on: CAKI-1
HL-60 = tested on: HL-60
HOP-62 = tested on: HOP-62
HOP-92 = tested on: HOP-92
IGROV-1 = tested on: IGROV-1
KM12 = tested on: KM12
LOX IMVI = tested on: LOX IMVI
MCF7 = tested on: MCF7
MDA-N = tested on: MDA-N
Malme-3M = tested on: Malme-3M
NCI-H226 = tested on: NCI-H226
NCI-H460 = tested on: NCI-H460
NCI-H522 = tested on: NCI-H522
RPMI-8226 = tested on: RPMI-8226
RXF 393 = tested on: RXF 393
SK-OV-3 = tested on: SK-OV-3
SNB-19 = tested on: SNB-19
T47D = tested on: T47D
U-251 = tested on: U-251

Cc1ccc2c(c1)C(=O)C(Cc1ccccc1C(=O)O)C2 (centres undefined)
GI50 (A549): > 100 µM (inactive)
GI50 (CAKI-1): > 100 µM (inactive)
GI50 (HL-60): > 100 µM (inactive)
GI50 (HOP-62): > 100 µM (inactive)
GI50 (HOP-92): > 100 µM (inactive)
GI50 (IGROV-1): > 100 µM (inactive)
GI50 (KM12): > 100 µM (inactive)
GI50 (LOX IMVI): > 100 µM (inactive)
GI50 (MCF7): > 100 µM (inactive)
GI50 (MDA-N): > 100 µM (inactive)
GI50 (Malme-3M): > 100 µM (inactive)
GI50 (NCI-H226): > 100 µM (inactive)
GI50 (NCI-H460): > 100 µM (inactive)
GI50 (NCI-H522): > 100 µM (inactive)
GI50 (RPMI-8226): > 100 µM (inactive)
GI50 (RXF 393): > 100 µM (inactive)
GI50 (SK-OV-3): > 100 µM (inactive)
GI50 (SNB-19): > 100 µM (inactive)
GI50 (T47D): > 100 µM (inactive)
GI50 (U-251): > 100 µM (inactive)

COc1ccc(/C=C2\CN(C)C/C(=C\c3ccc(OC)c(OC)c3OC)C2=O)c(OC)c1OC
GI50 (A549): 0.294 µM (active)
GI50 (CAKI-1): 0.485 µM (active)
GI50 (HL-60): 0.0191 µM (active)
GI50 (HOP-62): 0.294 µM (active)
GI50 (HOP-92): 0.617 µM (active)
GI50 (IGROV-1): 0.311 µM (active)
GI50 (KM12): 0.0859 µM (active)
GI50 (LOX IMVI): 0.115 µM (active)
GI50 (MCF7): 0.0507 µM (active)
GI50 (MDA-N): 0.0968 µM (active)
GI50 (Malme-3M): 0.171 µM (active)
GI50 (NCI-H226): 0.394 µM (active)
GI50 (NCI-H460): 0.146 µM (active)
GI50 (NCI-H522): 0.184 µM (active)
GI50 (RPMI-8226): 0.0292 µM (active)
GI50 (RXF 393): 0.167 µM (active)
GI50 (SK-OV-3): 0.586 µM (active)
GI50 (SNB-19): 0.237 µM (active)
GI50 (T47D): 1.05 µM (active)
GI50 (U-251): 0.0333 µM (active)

O=C1NC(N2CCOCC2)=N/C1=C\c1ccc(Cl)cc1
GI50 (A549): > 100 µM (inactive)
GI50 (CAKI-1): > 100 µM (inactive)
GI50 (HL-60): > 100 µM (inactive)
GI50 (HOP-62): > 100 µM (inactive)
GI50 (HOP-92): > 100 µM (inactive)
GI50 (IGROV-1): > 100 µM (inactive)
GI50 (KM12): > 100 µM (inactive)
GI50 (LOX IMVI): > 100 µM (inactive)
GI50 (MCF7): > 100 µM (inactive)
GI50 (MDA-N): > 100 µM (inactive)
GI50 (Malme-3M): > 100 µM (inactive)
GI50 (NCI-H226): > 100 µM (inactive)
GI50 (NCI-H522): > 100 µM (inactive)
GI50 (RPMI-8226): > 100 µM (inactive)
GI50 (RXF 393): > 100 µM (inactive)
GI50 (SK-OV-3): > 100 µM (inactive)
GI50 (SNB-19): > 100 µM (inactive)
GI50 (T47D): > 100 µM (inactive)
GI50 (U-251): > 100 µM (inactive)

CC(=O)CCNc1ccc(-c2cc(-c3ccc(N(C)C)cc3)nc3ccc4ccccc4c23)cc1
GI50 (A549): 34.1 µM (inactive)
GI50 (CAKI-1): > 65.8 µM (inactive)
GI50 (HL-60): 3.7 µM (inactive)
GI50 (HOP-62): > 100 µM (inactive)
GI50 (HOP-92): 79.3 µM (inactive)
GI50 (IGROV-1): 14.5 µM (inactive)
GI50 (KM12): 27.5 µM (inactive)
GI50 (LOX IMVI): > 100 µM (inactive)
GI50 (MCF7): 27.1 µM (inactive)
GI50 (MDA-N): > 100 µM (inactive)
GI50 (Malme-3M): > 67.8 µM (inactive)
GI50 (NCI-H226): > 41.5 µM (inactive)
GI50 (NCI-H460): 35.2 µM (inactive)
GI50 (NCI-H522): > 100 µM (inactive)
GI50 (RPMI-8226): 11.7 µM (inactive)
GI50 (RXF 393): 12.3 µM (inactive)
GI50 (SK-OV-3): > 100 µM (inactive)
GI50 (SNB-19): > 100 µM (inactive)
GI50 (T47D): 9.48 µM (inactive)
GI50 (U-251): > 84.9 µM (inactive)

NC1=NC(c2ccc(Cl)cc2)N(c2ccc(S(=O)(=O)Nc3ncccn3)cc2)C(N)=N1 (centres undefined)
GI50 (A549): > 100 µM (inactive)
GI50 (CAKI-1): > 100 µM (inactive)
GI50 (HL-60): 0.178 µM (active)
GI50 (HOP-62): > 100 µM (inactive)
GI50 (HOP-92): > 100 µM (inactive)
GI50 (IGROV-1): > 100 µM (inactive)
GI50 (KM12): > 100 µM (inactive)
GI50 (LOX IMVI): > 100 µM (inactive)
GI50 (MCF7): > 100 µM (inactive)
GI50 (MDA-N): > 100 µM (inactive)
GI50 (Malme-3M): > 100 µM (inactive)
GI50 (NCI-H226): > 100 µM (inactive)
GI50 (NCI-H460): > 100 µM (inactive)
GI50 (NCI-H522): > 100 µM (inactive)
GI50 (RPMI-8226): > 100 µM (inactive)
GI50 (RXF 393): > 100 µM (inactive)
GI50 (SK-OV-3): > 100 µM (inactive)
GI50 (SNB-19): > 100 µM (inactive)
GI50 (T47D): > 100 µM (inactive)
GI50 (U-251): > 100 µM (inactive)

CN(C)CCc1c2c(nc3ccccc13)C(=O)c1cccnc1C2=O
GI50 (A549): 1.24 µM (inactive)
GI50 (CAKI-1): 0.582 µM (active)
GI50 (HL-60): 0.0486 µM (active)
GI50 (HOP-92): 1.49 µM (inactive)
GI50 (IGROV-1): 0.542 µM (active)
GI50 (KM12): 0.173 µM (active)
GI50 (LOX IMVI): < 0.0476 µM (active)
GI50 (MCF7): 0.122 µM (active)
GI50 (MDA-N): 0.352 µM (active)
GI50 (Malme-3M): 0.49 µM (active)
GI50 (NCI-H226): 0.0902 µM (active)
GI50 (NCI-H460): 0.0826 µM (active)
GI50 (NCI-H522): 0.175 µM (active)
GI50 (RPMI-8226): 0.488 µM (active)
GI50 (RXF 393): 0.172 µM (active)
GI50 (SK-OV-3): 0.479 µM (active)
GI50 (SNB-19): 0.652 µM (active)
GI50 (T47D): 1.83 µM (inactive)
GI50 (U-251): 0.176 µM (active)

COC(=O)[C@H](C)N1C(=O)N[C@@H](C(C)C)C1=O
GI50 (A549): > 100 µM (inactive)
GI50 (CAKI-1): > 100 µM (inactive)
GI50 (HOP-62): > 100 µM (inactive)
GI50 (HOP-92): > 100 µM (inactive)
GI50 (IGROV-1): > 100 µM (inactive)
GI50 (KM12): > 100 µM (inactive)
GI50 (LOX IMVI): > 100 µM (inactive)
GI50 (MCF7): > 100 µM (inactive)
GI50 (MDA-N): > 100 µM (inactive)
GI50 (Malme-3M): > 100 µM (inactive)
GI50 (NCI-H226): > 100 µM (inactive)
GI50 (NCI-H460): > 100 µM (inactive)
GI50 (NCI-H522): > 100 µM (inactive)
GI50 (RPMI-8226): > 100 µM (inactive)
GI50 (RXF 393): > 100 µM (inactive)
GI50 (SK-OV-3): > 100 µM (inactive)
GI50 (SNB-19): > 100 µM (inactive)
GI50 (T47D): > 100 µM (inactive)
GI50 (U-251): > 100 µM (inactive)

CCn1c2ccc(O)c(C(=O)OC)c2c2cc3ccccc3c(O)c21
GI50 (A549): 16.3 µM (inactive)
GI50 (CAKI-1): 13.4 µM (inactive)
GI50 (HL-60): 20.1 µM (inactive)
GI50 (HOP-62): 20.2 µM (inactive)
GI50 (HOP-92): 1.95 µM (inactive)
GI50 (IGROV-1): 8 µM (inactive)
GI50 (KM12): 15.3 µM (inactive)
GI50 (MCF7): 22.5 µM (inactive)
GI50 (MDA-N): 20.5 µM (inactive)
GI50 (Malme-3M): 2.72 µM (inactive)
GI50 (NCI-H226): 26.2 µM (inactive)
GI50 (NCI-H460): 14.2 µM (inactive)
GI50 (NCI-H522): 18.3 µM (inactive)
GI50 (RPMI-8226): 10.2 µM (inactive)
GI50 (RXF 393): 31.2 µM (inactive)
GI50 (SK-OV-3): 10.5 µM (inactive)
GI50 (SNB-19): 33 µM (inactive)
GI50 (T47D): 11.5 µM (inactive)
GI50 (U-251): 18 µM (inactive)

O=C(Cc1cc(=O)oc2cc(O)ccc12)N/N=C/c1ccc(N(CCCl)CCCl)cc1
GI50 (A549): 16.1 µM (inactive)
GI50 (CAKI-1): 12.7 µM (inactive)
GI50 (HL-60): 14.5 µM (inactive)
GI50 (HOP-62): 23.7 µM (inactive)
GI50 (HOP-92): 20.8 µM (inactive)
GI50 (IGROV-1): 18.8 µM (inactive)
GI50 (KM12): 32.4 µM (inactive)
GI50 (LOX IMVI): 16.6 µM (inactive)
GI50 (MCF7): 14.8 µM (inactive)
GI50 (MDA-N): 23.4 µM (inactive)
GI50 (Malme-3M): 20.5 µM (inactive)
GI50 (NCI-H226): 17.7 µM (inactive)
GI50 (NCI-H460): 13.8 µM (inactive)
GI50 (NCI-H522): 20.9 µM (inactive)
GI50 (RPMI-8226): 16.4 µM (inactive)
GI50 (RXF 393): 16.6 µM (inactive)
GI50 (SNB-19): 21.1 µM (inactive)
GI50 (T47D): > 10 µM (inactive)
GI50 (U-251): 17.4 µM (inactive)

C=CCC(CNC(=O)OCc1ccccc1)OC(=O)OCc1ccccc1 (centres undefined)
GI50 (A549): 51.3 µM (inactive)
GI50 (CAKI-1): > 100 µM (inactive)
GI50 (HL-60): 34 µM (inactive)
GI50 (HOP-62): > 100 µM (inactive)
GI50 (HOP-92): 52.6 µM (inactive)
GI50 (IGROV-1): > 100 µM (inactive)
GI50 (KM12): 48.1 µM (inactive)
GI50 (LOX IMVI): > 100 µM (inactive)
GI50 (MCF7): 39.1 µM (inactive)
GI50 (MDA-N): 47.1 µM (inactive)
GI50 (NCI-H226): > 100 µM (inactive)
GI50 (NCI-H460): > 100 µM (inactive)
GI50 (NCI-H522): 62.1 µM (inactive)
GI50 (RPMI-8226): 26.1 µM (inactive)
GI50 (RXF 393): > 100 µM (inactive)
GI50 (SK-OV-3): > 100 µM (inactive)
GI50 (SNB-19): > 100 µM (inactive)
GI50 (T47D): 47.8 µM (inactive)
GI50 (U-251): > 100 µM (inactive)
